≈ marks a conversion by molar mass, not a printed value. Like-named read-outs stand apart in the source and are kept apart here. Where no end group is shown, it is not given here.
How the values were obtained:
S. aureus (ATCC 29213) = test: MIC, standard microtiter dilution (CLSI); type: cell-based; details: broth microdilution (CLSI), CAMHB, 37 °C, 24 h
Procedure, shortened: (§1)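 In this CLSI-recommended assay, peptides were serially diluted twofold and combined with bacteria at 10^6 CFU/mL in cation-adjusted Mueller Hinton Broth.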

MRSA (ATCC BAA-1556) = details: for MIC, MRSA (ATCC BAA-1556), Control: MH media without salt ions or serum; for MIC, MRSA (ATCC BAA-1556), Control / MIC, MRSA (ATCC BAA-1556), MgCl2 / MIC, MRSA (ATCC BAA-1556), CaCl2 / MIC, MRSA (ATCC BAA-1556), KCl / MIC, MRSA (ATCC BAA-1556), NH4Cl / MIC, MRSA (ATCC BAA-1556), NaCl / MIC, MRSA (ATCC BAA-1556), FBS (25%): three independent experiments in triplicate; for MIC, MRSA (ATCC BAA-1556): broth microdilution (CLSI), CAMHB, 37 °C, 24 h; for MIC, MRSA (ATCC BAA-1556), MgCl2: media with 1 mM MgCl2; for MIC, MRSA (ATCC BAA-1556), CaCl2: media with 2 mM CaCl2; for MIC, MRSA (ATCC BAA-1556), KCl: media with 4.5 mM KCl; for MIC, MRSA (ATCC BAA-1556), NH4Cl: media with 6 mM NH4Cl; for MIC, MRSA (ATCC BAA-1556), NaCl: media with 150 mM NaCl; for MIC, MRSA (ATCC BAA-1556), FBS (25%): media with 25% fetal bovine serum
Procedure, shortened: as §1

[1] = system: S. pneumoniae (ATCC 700677); details: Gram-positive, multi-drug resistant (penicillin, tetracycline, erythromycin); CAMHB + 2.5% lysed horse blood, 37 °C, 24 h; highest MIC of three independent experiments in triplicate
Procedure, shortened: as §1

[2] = system: human lung fibroblast cells (MRC-5), human embryonic kidney cells (HEK-293), human hepatic cells (HepaRG), HeKa cells; test: 24 h cell viability assay (MTS); type: cell-based; details: triplicate
Protocol: The in vitro cytotoxicity of 8a and 8b was evaluated using human lung fibroblast cells (MRC-5), human embryonic kidney cells (HEK-293), human hepatic cells (HepaRG), and human epidermal keratinocytes (HEKa). Cells were seeded at 10,000 per well in 0.1 mL of media in 96-well plates 24 h prior to the experiment. Lung and kidney cells were seeded in DMEM medium containing FBS (10%). Liver cells were seeded in William’s E medium with the GlutaMAX supplement. Epidermal keratinocytes were seeded in a Dermal Cell Basal medium supplemented with a keratinocyte growth kit. The peptides were added to each well in triplicates at a variable concentration of 10–250 μg/mL and incubated for 24h at 37 °C in a humidified atmosphere of 5% CO2. After the incubation period, the MTS solution (20 μL) was added to each well. Then, the cells were incubated for 2 h at 37 °C, and the cell viability was determined by measuring the absorbance at 490 nm using a SpectraMaxM2 microplate spectrophotometer. The percentage of cell survival was calculated as [(OD value of cells treated with the test mixture of compounds) – (OD value of culture medium)]/[(OD value of control cells) – (OD value of culture medium)] × 100%.

[3] = Calcein dye leakage assay; details: after 100 min, 10% Triton X-100 = 100%, triplicate
Protocol: The calcein dye leakage assay was conducted using the large unilamellar vesicles (LUVs) composed of 1,2-dioleoyl-sn-glycero-3-phosphocholine (DOPC) and 1,2-dioleoyl-sn-glycero-3-phosphoglycerol (DOPG) to mimic the bacterial membrane (DOPC/DOPG, 7:3, w/w) or mammalian membrane (DOPC/cholesterol, 10:1, w/w), as we described previously.[18] At various concentrations (5, 10, 20, 30, and 50 μg/mL) test peptides 8a and 8b (50 μL) mixed with liposome suspension (50 μL), and fluorescence intensity was read every 10 min for 100 min at an excitation wavelength of 490 nm and an emission wavelength of 520 nm on a SpectraMax M5 multi-mode microplate reader. Considering calcein release from liposomes treated with a 10% solution (w/v) of Triton X-100 as 100%, the apparent percentage of dye leakage was calculated using the following formula [drawing 2] where F is the intensity measured at a given peptide concentration, F0 is the background intensity of the liposome sample, and Ft is the intensity after lysis induced by Triton X-100.

[4] = Relative hydrophobicity as RP-HPLC retention time; type: physicochemical; details: chromatographic, Phenomenex Luna C18 4 μm 150 × 4.6 mm, linear AB gradient 1% acetonitrile/min, 0.3 mL/min, A water 0.1% TFA, B acetonitrile 0.1% TFA, 25 °C
Protocol: The purity analysis of the peptides was conducted on a RP-HPLC system (Shimadzu; LC-20ADXR) by using a Phenomenex (Luna) analytical C18 column (4 μm, 150 × 4.6 mm). The mass of the purified peptides was determined in the positive-ion mode using Q-TOF LC/MS (Compass Hystar 4.1, Bruker, USA). The purity (>95%) and mass data of all the synthesized peptides are provided in the Supporting Information.
8. Comparative Hydrophobicity analysis
The purity of all synthesized peptides was determined using reverse phase analytical HPLC
(Shimadzu; LC-20ADXR). Below mentioned are the conditions used to conduct the purity
Column: Phenomenex (Luna), 4 um, C18, 150 × 4.6 mm
Mobile Phase: Buffer A-Water containing 0.1% TFA,
Buffer B-Acetonitrile containing 0.1% TFA
Figure S52. HPLC chromatogram of 6a.
(1 picture or pasted object on this page, not shown here)

[5] = 10^6 CFU/mL, highest MIC of three independent experiments in triplicate
[6] = bacterial membrane mimicking LUVs
[7] = mammalian membrane mimicking LUVs
[8] = all tested cells (MRC-5, HEK-293, HepaRG, HeKa), MTS

Compound	MIC, S. aureus (ATCC 29213) (S. aureus (ATCC 29213); [5]) [µg/mL]	MIC, S. aureus (ATCC 29213) (S. aureus (ATCC 29213); value in parentheses (μM)) [µM]	MIC, MRSA (ATCC BAA-1556), Control (MRSA (ATCC BAA-1556)) [µg/mL]	MIC, MRSA (ATCC BAA-1556) (MRSA (ATCC BAA-1556); [5]) [µg/mL]	MIC, MRSA (ATCC BAA-1556), MgCl2 (MRSA (ATCC BAA-1556)) [µg/mL]	MIC, MRSA (ATCC BAA-1556), CaCl2 (MRSA (ATCC BAA-1556)) [µg/mL]	MIC, MRSA (ATCC BAA-1556), KCl (MRSA (ATCC BAA-1556)) [µg/mL]	MIC, MRSA (ATCC BAA-1556), NH4Cl (MRSA (ATCC BAA-1556)) [µg/mL]	MIC, MRSA (ATCC BAA-1556), NaCl (MRSA (ATCC BAA-1556)) [µg/mL]	MIC, MRSA (ATCC BAA-1556), FBS (25%) (MRSA (ATCC BAA-1556)) [µg/mL]	MIC, MRSA (ATCC BAA-1556) (MRSA (ATCC BAA-1556); value in parentheses (μM)) [µM]	MIC, S. pneumoniae (ATCC 700677) [1] [µg/mL]	cytotoxicity against kidney and liver cells ([2]; HEK293 and HPRGC10 (HepaRG), up to 250 μg/mL)	calcein dye leakage, 50 μg/mL [3, 6] [%]	calcein dye leakage, 50 μg/mL [3, 7]	tR, RP-HPLC retention time (measure of overall hydrophobicity) [4] [min]	cell viability at 250 μg/mL, except for skin cells ([2]; MRC-5, HEK-293, HepaRG, MTS)	cell viability at 50 μg/mL [2, 8]	calcein dye leakage, 5 μg/mL [3, 6]	cell viability at 250 μg/mL [2, 8]
CCCCCCCCCC(=O)N[C@@H](Cc1c[nH]c2ccccc12)C(=O)N[C@H](CC(N)=O)C(=O)N[C@@H](CC(=O)O)C(=O)N[C@@H]1C(=O)NCC(=O)N[C@@H](CCCN)C(=O)N[C@@H](CC(=O)O)C(=O)N[C@H](C)C(=O)N[C@@H](CC(=O)O)C(=O)NCC(=O)N[C@H](CO)C(=O)N[C@@H]([C@H](C)CC(=O)O)C(=O)N[C@@H](CC(=O)c2ccccc2N)C(=O)O[C@@H]1C [daptomycin, reference compound]	0.7	0.43	1.5	1.5	3.1 (≈ 1.91 µM)	3.1 (≈ 1.91 µM)	1.5 (≈ 0.926 µM)	1.5 (≈ 0.926 µM)	1.5 (≈ 0.926 µM)	3.1 (≈ 1.91 µM)	0.86	12.5	negligible cytotoxicity	42	around 7%	–	–	–	–	–
KWIKKWIKWWKK-NH2 [7b]	6.2	3.53	6.2	6.2	6.2	12.5	12.5	12.5	25	25	3.53	25	–	–	–	32.23	–	–	–	–
RWIRRWIRWWRR-NH2 [7a]	6.2	3.22	6.2	6.2	6.2	6.2	12.5	6.2	12.5	25	3.22	25	–	–	–	33.93	–	–	–	–
KWLKKWLKWWKK-NH2 [8b]	3.1	1.76	3.1	3.1	6.2	6.2	6.2	6.2	12.5	12.5	1.76	12.5	–	–	10%	33.41	above 60%	above 75%	approximately 30%	–
RWLRRWLRWWRR-NH2 [8a]	6.2	3.22	6.2	6.2	6.2	6.2	12.5	6.2	12.5	50	3.22	12.5	–	–	19%	34.99	–	below 60%	approximately 30%	below 30%
